Experiment [1] relates to Hepatitis C virus. As to the kind of experiment: Antiviral activity against HCV in human Huh7 cells after 72 hrs by cell based luciferase reporter assay. In kind it is functional, organism-based, Hepacivirus hominis. The conditions noted are these: Huh-7, 72 h.
Experiment [2] can be described thus: Inhibition of HCV NS3 protease. Also on record: species or system Hepacivirus hominis.

In experiment [1], `C=C[C@@H]1C[C@]1(NC(=O)[C@@H]1C[C@@H](n2cc(-c3ccc(N(C)C)cc3)nn2)CN1C(=O)[C@@H](NC(=O)OC1CCCC1)C(C)(C)C)C(=O)NS(=O)(=O)C1CC1` registered a half-maximal effective concentration (EC50) of 0.27 µM. The IC50 in experiment [2] is less than 0.003 µM.
The molecule `C=C[C@@H]1C[C@]1(NC(=O)[C@@H]1C[C@@H](n2cc(C3CCCCC3)nn2)CN1C(=O)[C@@H](NC(=O)OC1CCCC1)C(C)(C)C)C(=O)O` displayed a half-inhibitory concentration (IC50) in experiment [2] of 4.3 µM.
The molecule `C=C[C@@H]1C[C@]1(NC(=O)[C@@H]1C[C@@H](n2ccnn2)CN1C(=O)[C@@H](NC(=O)OC1CCCC1)C(C)(C)C)C(=O)O` gave an IC50 in experiment [2] of 59 µM.
Regarding `C=C[C@@H]1C[C@]1(NC(=O)[C@@H]1C[C@@H](n2cc(-c3cc(Cl)cc(Cl)c3)nn2)CN1C(=O)[C@@H](NC(=O)OC1CCCC1)C(C)(C)C)C(=O)NS(=O)(=O)C1CC1`, the EC50 in experiment [1] turned out to be 0.14 µM. Also, in experiment [2], the IC50 is less than 0.003 µM.
In experiment [1], `C=C[C@@H]1C[C@]1(NC(=O)[C@@H]1C[C@@H](n2cc(-c3ccc4c(c3)OCO4)nn2)CN1C(=O)[C@@H](NC(=O)OC1CCCC1)C(C)(C)C)C(=O)NS(=O)(=O)C1CC1` came in with a concentration giving a half-maximal response (EC50) of 0.19 µM. In experiment [2], this molecule returned an IC50 of less than 0.003 µM.
On to `C=C[C@@H]1C[C@]1(NC(=O)[C@@H]1C[C@@H](n2cc(-c3ccc(Cl)cc3)nn2)CN1C(=O)[C@@H](NC(=O)OC1CCCC1)C(C)(C)C)C(=O)NS(=O)(=O)C1CC1`, for which it took 0.68 µM to reach a half-maximal effect in experiment [1] (EC50). The same molecule yielded an IC50 in experiment [2] of less than 0.003 µM.
In the case of `C=C[C@@H]1C[C@]1(NC(=O)[C@@H]1C[C@@H](n2cc(-c3ccc(OC)cc3)nn2)CN1C(=O)[C@@H](NC(=O)OC1CCCC1)C(C)(C)C)C(=O)O`, the IC50 in experiment [2] came to 0.36 µM.
`C=C[C@@H]1C[C@]1(NC(=O)[C@@H]1C[C@@H](n2cc(-c3ccc4c(c3)CCO4)nn2)CN1C(=O)[C@@H](NC(=O)OC1CCCC1)C(C)(C)C)C(=O)O`: the IC50 in experiment [2] stood at 0.13 µM.
`C=C[C@@H]1C[C@]1(NC(=O)[C@@H]1C[C@@H](n2cc(-c3ccc(-c4ccccc4)cc3)nn2)CN1C(=O)[C@@H](NC(=O)OC1CCCC1)C(C)(C)C)C(=O)O` came in with an IC50 in experiment [2] of 0.86 µM.
Regarding `C=C[C@@H]1C[C@]1(NC(=O)[C@@H]1C[C@@H](n2cc(-c3cc(Br)cc(Br)c3)nn2)CN1C(=O)[C@@H](NC(=O)OC1CCCC1)C(C)(C)C)C(=O)NS(=O)(=O)C1CC1`, in experiment [1], the half-maximal effective concentration (EC50) came to 0.15 µM. Also, in experiment [2], the 50% inhibitory concentration (IC50) is less than 0.003 µM.
In the case of `C=C[C@@H]1C[C@]1(NC(=O)[C@@H]1C[C@@H](n2cc(-c3cccc(Cl)c3)nn2)CN1C(=O)[C@@H](NC(=O)OC1CCCC1)C(C)(C)C)C(=O)NS(=O)(=O)C1CC1`, the EC50 in experiment [1] was 0.17 µM. The same molecule registered an IC50 in experiment [2] of less than 0.003 µM.
Molecule `C=C[C@@H]1C[C@]1(NC(=O)[C@@H]1C[C@@H](n2cc(-c3cc(Br)cc(Br)c3)nn2)CN1C(=O)[C@@H](NC(=O)NC1CCCC1)C(C)(C)C)C(=O)NS(=O)(=O)C1CC1` registered a 50% effective concentration (EC50) in experiment [1] of 0.105 µM.
The molecule `C=C[C@@H]1C[C@]1(NC(=O)[C@@H]1C[C@@H](n2cc(-c3ccccc3)nn2)CN1C(=O)[C@@H](NC(=O)OC1CCCC1)C(C)(C)C)C(=O)O` returned an IC50 in experiment [2] of 0.7 µM. This counts as sub-micromolar.
Still for that read-out and setting: the figure for `C=C[C@@H]1C[C@]1(NC(=O)[C@@H]1C[C@@H](n2cc(-c3ccccn3)nn2)CN1C(=O)[C@@H](NC(=O)OC1CCCC1)C(C)(C)C)C(=O)O` is 3.7 µM.
For `C=C[C@@H]1C[C@]1(NC(=O)[C@@H]1C[C@@H](n2cc(-c3ccc4c(c3)CCO4)nn2)CN1C(=O)[C@@H](NC(=O)OC1CCCC1)C(C)(C)C)C(=O)NS(=O)(=O)C1CC1`, in experiment [1], the midpoint of the response, the EC50, lay at 0.23 µM. Besides, the IC50 in experiment [2] was less than 0.003 µM.
In experiment [1], `C=C[C@@H]1C[C@]1(NC(=O)[C@@H]1C[C@@H](n2cc(-c3cc(Br)cc(Br)c3)nn2)CN1C(=O)[C@@H](NC(=O)OC1CCCC1)C(C)(C)C)C(=O)NS(=O)(=O)C1(C)CC1` had an EC50 of 0.077 µM.
In experiment [2], `C=C[C@@H]1C[C@]1(NC(=O)[C@@H]1C[C@@H](n2nncc2-c2ccccc2)CN1C(=O)[C@@H](NC(=O)OC1CCCC1)C(C)(C)C)C(=O)O` came in with an IC50 of 14 µM. This counts as double-digit micromolar.
`C=C[C@@H]1C[C@]1(NC(=O)[C@@H]1C[C@@H](n2cc(-c3ccccc3Cl)nn2)CN1C(=O)[C@@H](NC(=O)OC1CCCC1)C(C)(C)C)C(=O)NS(=O)(=O)C1CC1` gave a concentration for a half-maximal effect (EC50) in experiment [1] of 0.22 µM. This molecule also registered an IC50 in experiment [2] of less than 0.003 µM.
`C=C[C@@H]1C[C@]1(NC(=O)[C@@H]1C[C@@H](n2cc(-c3cccc4ccccc34)nn2)CN1C(=O)[C@@H](NC(=O)OC1CCCC1)C(C)(C)C)C(=O)O` had a 50% inhibitory concentration (IC50) in experiment [2] of 0.89 µM.
In the case of `C=C[C@@H]1C[C@]1(NC(=O)[C@@H]1C[C@@H](n2cc(-c3ccc(Cl)cc3)nn2)CN1C(=O)[C@@H](NC(=O)OC1CCCC1)C(C)(C)C)C(=O)O`, the half-maximal inhibitory concentration (IC50) in experiment [2] came to 0.79 µM.
As for `C=C[C@@H]1C[C@]1(NC(=O)[C@@H]1C[C@@H](n2cc(-c3ccsc3)nn2)CN1C(=O)[C@@H](NC(=O)OC1CCCC1)C(C)(C)C)C(=O)NS(=O)(=O)C1CC1`, in experiment [1], the midpoint of the response, the EC50, lay at 1.22 µM. In addition, the IC50 in experiment [2] was less than 0.003 µM.
In the same order, the values of `C=C[C@@H]1C[C@]1(NC(=O)[C@@H]1C[C@@H](n2cc(-c3ccc(S(C)(=O)=O)cc3)nn2)CN1C(=O)[C@@H](NC(=O)OC1CCCC1)C(C)(C)C)C(=O)NS(=O)(=O)C1CC1` are greater than 7.3 µM and less than 0.003 µM.
Turning to `C=C[C@@H]1C[C@]1(NC(=O)[C@@H]1C[C@@H](Oc2cc(-c3ccccc3)nc3cc(OC)ccc23)CN1C(=O)[C@@H](NC(=O)OC1CCCC1)C(C)(C)C)C(=O)O`, it took 0.55 µM to reach a half-maximal effect in experiment [1] (EC50). This molecule also yielded an IC50 in experiment [2] of 0.014 µM.
In the same order, the values of `C=C[C@@H]1C[C@]1(NC(=O)[C@@H]1C[C@@H](n2cc(-c3cccc(Br)c3)nn2)CN1C(=O)[C@@H](NC(=O)OC1CCCC1)C(C)(C)C)C(=O)NS(=O)(=O)C1CC1` are 0.21 µM and less than 0.003 µM.
In experiment [1], `C=C[C@@H]1C[C@]1(NC(=O)[C@@H]1C[C@@H](n2cc(-c3ccccc3)nn2)CN1C(=O)[C@@H](NC(=O)OC1CCCC1)C(C)(C)C)C(=O)NS(=O)(=O)C1CC1` yielded an EC50 of 0.43 µM. The molecule also came in with an IC50 in experiment [2] of 0.0027 µM.

Source of the values: ChEMBL document CHEMBL1143083, “Potent triazolyl-proline-based inhibitors of HCV NS3 protease” (Bioorg Med Chem Lett, 2008).
